Here are results for two compounds from patent EP0409227A2, “Pyrimidine nucleosides, their preparation and pharmaceutical preparations” (MATTHES, Eckart, Dr., priority 1989, dated 1991).

The test system of the first data set is MT4 Zellen. In words: Cytotoxicity: inhibition of proliferation of MT4 cells. The format is cell-based. The settings on record: human, 48 h. The protocol:
Unter dem Aspekt einer möglichen Anwendung der Verbindungen am Menschen wurden ihre antiproliferativen Wirkungen an menschlichen Zellkulturen wie früher beschrieben getestet (E. Matthes et al. Biochem.Biophys.Res.Commun. 153, 825 (1988)). Dabei zeigte sich, daß z.B. 2′,3′-Didesoxy-3-fluor-5-methylcytidin gegenüber der T-Zellinie MT4 eine CD₅₀ von 190 µM aufweist. In einem weiteren Test, in dem eine mögliche Wachstumshemmung koloniebildender Zellen des Knochenmarks der Maus (CFU-GM) untersucht wurde (E. Matthes et al. Biochem.Biophys.Res.Commun. 165, 488 (1989), erwies sich diese Verbindung ebenfalls als kaum proliferationshemmend (CD₅₀ > 500 µM). Die Wirkung weiterer Verbindungen auf die Proliferation von MT4-Zellen ist in Tabelle 3 zusammengefaßt. Tabelle 3
As for `Cc1cn([C@H]2C[C@H](N)[C@@H](CO)O2)c(=O)nc1N` [2′,3′-Didesoxy-3′-amino-5-methylcytidin], the CD₅₀ was 1,2 µM.
On the same count and under the same terms, for `Nc1ncnc2c1ncn2[C@H]1C=C[C@@H](CO)O1` [2′,3′-Didehydro-2′,3′-didesoxyadenosin, 9-(2,3-Didesoxy-β-D-glycero-pent-2-enofuranosyl)adenin] the value was 48 µM.

The test system of another data set is HBsAg-Sekretion von Hep G2 (2.2.15)-Zellen. The data set can be described thus: Inhibition of HBsAg secretion of Hep G2 (2.2.15) cells (solid-phase radioimmunoassay of the medium). The format is cell-based, HBV. The settings on record: nucleoside 0,01 µM; 4 days + 24 h; mean ± SD of five experiments. The protocol: (§1) Die Testung der antiviralen Wirksamkeit der Nucleoside auf zelluärer Ebene erfolgte an einer menschlichen Hepatoblastom-Zellinie, die mit dem HBV-Genom tranfiziert wurde und sowohl das Oberflächenantigen des Virus (HBsAg) als auch die HBV-DNA permanent produziert und infektiöse Viruspartikel in das Medium abgibt (Hep G2-Zellen, Klon 2.2.15, Sells et al. Proc.Natl.Acad. Sci. 84, 1005 (1987)). Die Zellen (5x10⁵/ml) wurden in RPMI 1640-Medium mit 2 mM Glutamin und 10% fetalem Kälberserum allein oder zusammen mit den Nucleosid-Analoga für 4 Tage inkubiert, danach wurden den Ansätzen für 24 Stunden ³H-Thymidin bzw. ³H-Desoxyadenosin (3 µCi/ml) zugesetzt, die Zellen abzentrifugiert und darin die säureunlösliche Radioaktivität und damit der Einfluß auf die DNA-Synthese bestimmt. Im Inkubationsmedium wurde das HBsAg durch Festphasenradioimmunoassay (Travenol-Genentech Diagnostics, Cambridge, MA) entsprechend den Instruktionen des Herstellers ermittelt. Die Tabelle 4 faßt die Ergebnisse zusammen, die belegen, daß die getesteten Verbindungen hochwirksame und selektive Hemmstoffe der HBV-Vermehrung sind.
On to `Cc1cn([C@H]2C[C@H](N)[C@@H](CO)O2)c(=O)nc1N` [2′,3′-Didesoxy-3′-amino-5-methylcytidin], for which the HBsAg was 8,5 ± 1,3 ng/ml.
As to `Nc1ncnc2c1ncn2[C@H]1C=C[C@@H](CO)O1` [2′,3′-Didehydro-2′,3′-didesoxyadenosin, 9-(2,3-Didesoxy-β-D-glycero-pent-2-enofuranosyl)adenin], the HBsAg is reported as 12,4 ± 1,8 ng/ml.

The data set is the same for the next values; noted with them: nucleoside 0,1 µM; 4 days + 24 h; mean ± SD of five experiments.
On to `Cc1cn([C@H]2C[C@H](N)[C@@H](CO)O2)c(=O)nc1N` [2′,3′-Didesoxy-3′-amino-5-methylcytidin], for which the HBsAg is 4,8 ± 0,6 ng/ml.
With `Nc1ncnc2c1ncn2[C@H]1C=C[C@@H](CO)O1` [2′,3′-Didehydro-2′,3′-didesoxyadenosin, 9-(2,3-Didesoxy-β-D-glycero-pent-2-enofuranosyl)adenin], the HBsAg is 0,5 ± 0,2 ng/ml.

Staying with this data set, now noted: nucleoside 0,01 µM; % of control without nucleoside (100).
`Cc1cn([C@H]2C[C@H](N)[C@@H](CO)O2)c(=O)nc1N` [2′,3′-Didesoxy-3′-amino-5-methylcytidin] had an HBsAg of 44%.
In turn, `Nc1ncnc2c1ncn2[C@H]1C=C[C@@H](CO)O1` [2′,3′-Didehydro-2′,3′-didesoxyadenosin, 9-(2,3-Didesoxy-β-D-glycero-pent-2-enofuranosyl)adenin] showed an HBsAg of 71%.

The same data set, now with this note: nucleoside 0,1 µM; % of control without nucleoside (100).
`Cc1cn([C@H]2C[C@H](N)[C@@H](CO)O2)c(=O)nc1N` [2′,3′-Didesoxy-3′-amino-5-methylcytidin] displayed an HBsAg of 25%.
Still for that read-out and setting: the same measure for `Nc1ncnc2c1ncn2[C@H]1C=C[C@@H](CO)O1` [2′,3′-Didehydro-2′,3′-didesoxyadenosin, 9-(2,3-Didesoxy-β-D-glycero-pent-2-enofuranosyl)adenin]: 3%.

The data set is the same for the next values; noted with them: nucleoside 0,03 µM; 4 days + 24 h; mean ± SD of five experiments.
As to `Cc1cn([C@H]2C[C@H](N)[C@@H](CO)O2)c(=O)nc1N` [2′,3′-Didesoxy-3′-amino-5-methylcytidin], the HBsAg is 7,0 ± 1,1 ng/ml.
Still for that read-out and setting: the same measure for `Nc1ncnc2c1ncn2[C@H]1C=C[C@@H](CO)O1` [2′,3′-Didehydro-2′,3′-didesoxyadenosin, 9-(2,3-Didesoxy-β-D-glycero-pent-2-enofuranosyl)adenin]: 4,7 ± 0,6 ng/ml.

Still in this data set, the particulars now being: nucleoside 0,3 µM; 4 days + 24 h; mean ± SD of five experiments.
In the case of `Cc1cn([C@H]2C[C@H](N)[C@@H](CO)O2)c(=O)nc1N` [2′,3′-Didesoxy-3′-amino-5-methylcytidin], the HBsAg was 3,2 ± 0,4 ng/ml.
Turning to `Nc1ncnc2c1ncn2[C@H]1C=C[C@@H](CO)O1` [2′,3′-Didehydro-2′,3′-didesoxyadenosin, 9-(2,3-Didesoxy-β-D-glycero-pent-2-enofuranosyl)adenin], the HBsAg was < 0,1 ng/ml.

Still in this data set, the particulars now being: nucleoside 0,03 µM; % of control without nucleoside (100).
The compound `Cc1cn([C@H]2C[C@H](N)[C@@H](CO)O2)c(=O)nc1N` [2′,3′-Didesoxy-3′-amino-5-methylcytidin] showed an HBsAg of 36%.
Compound `Nc1ncnc2c1ncn2[C@H]1C=C[C@@H](CO)O1` [2′,3′-Didehydro-2′,3′-didesoxyadenosin, 9-(2,3-Didesoxy-β-D-glycero-pent-2-enofuranosyl)adenin] yielded an HBsAg of 27%.

Still in this data set, the particulars now being: nucleoside 0,3 µM; % of control without nucleoside (100).
In turn, `Cc1cn([C@H]2C[C@H](N)[C@@H](CO)O2)c(=O)nc1N` [2′,3′-Didesoxy-3′-amino-5-methylcytidin] registered an HBsAg of 17%.
On the same count and under the same terms, the same measure for `Nc1ncnc2c1ncn2[C@H]1C=C[C@@H](CO)O1` [2′,3′-Didehydro-2′,3′-didesoxyadenosin, 9-(2,3-Didesoxy-β-D-glycero-pent-2-enofuranosyl)adenin]: less than 1%.

The same data set, now with this note: nucleoside 0,003 µM; 4 days + 24 h; mean ± SD of five experiments.
With `Cc1cn([C@H]2C[C@H](N)[C@@H](CO)O2)c(=O)nc1N` [2′,3′-Didesoxy-3′-amino-5-methylcytidin], the HBsAg was 13,9 ± 2,9 ng/ml.
Turning to `Nc1ncnc2c1ncn2[C@H]1C=C[C@@H](CO)O1` [2′,3′-Didehydro-2′,3′-didesoxyadenosin, 9-(2,3-Didesoxy-β-D-glycero-pent-2-enofuranosyl)adenin], the HBsAg is 16,9 ± 2,6 ng/ml.

Still in this data set, the particulars now being: nucleoside 0,003 µM; % of control without nucleoside (100).
`Cc1cn([C@H]2C[C@H](N)[C@@H](CO)O2)c(=O)nc1N` [2′,3′-Didesoxy-3′-amino-5-methylcytidin] registered an HBsAg of 72%.
Still for that read-out and setting: the same measure for `Nc1ncnc2c1ncn2[C@H]1C=C[C@@H](CO)O1` [2′,3′-Didehydro-2′,3′-didesoxyadenosin, 9-(2,3-Didesoxy-β-D-glycero-pent-2-enofuranosyl)adenin]: 96%.

Staying with this data set, now noted: nucleoside 1,0 µM; 4 days + 24 h; mean ± SD of five experiments.
`Cc1cn([C@H]2C[C@H](N)[C@@H](CO)O2)c(=O)nc1N` [2′,3′-Didesoxy-3′-amino-5-methylcytidin]: the HBsAg is listed as 0,3 ± 0,1 ng/ml.
The same measure, in the same setting: the same measure for `Nc1ncnc2c1ncn2[C@H]1C=C[C@@H](CO)O1` [2′,3′-Didehydro-2′,3′-didesoxyadenosin, 9-(2,3-Didesoxy-β-D-glycero-pent-2-enofuranosyl)adenin]: < 0,1 ng/ml.

The data set is the same for the next values; noted with them: nucleoside 1,0 µM; % of control without nucleoside (100).
`Cc1cn([C@H]2C[C@H](N)[C@@H](CO)O2)c(=O)nc1N` [2′,3′-Didesoxy-3′-amino-5-methylcytidin]: the HBsAg is listed as 2%.
The compound `Nc1ncnc2c1ncn2[C@H]1C=C[C@@H](CO)O1` [2′,3′-Didehydro-2′,3′-didesoxyadenosin, 9-(2,3-Didesoxy-β-D-glycero-pent-2-enofuranosyl)adenin] showed an HBsAg of less than 1%.

Staying with this data set, now noted: nucleoside 3,0 µM; 4 days + 24 h; mean ± SD of five experiments.
As for `Cc1cn([C@H]2C[C@H](N)[C@@H](CO)O2)c(=O)nc1N` [2′,3′-Didesoxy-3′-amino-5-methylcytidin], the HBsAg was < 0,1 ng/ml.
On the same count and under the same terms, for `Nc1ncnc2c1ncn2[C@H]1C=C[C@@H](CO)O1` [2′,3′-Didehydro-2′,3′-didesoxyadenosin, 9-(2,3-Didesoxy-β-D-glycero-pent-2-enofuranosyl)adenin] the value was < 0,1 ng/ml.

The same data set, now with this note: nucleoside 3,0 µM; % of control without nucleoside (100).
For `Cc1cn([C@H]2C[C@H](N)[C@@H](CO)O2)c(=O)nc1N` [2′,3′-Didesoxy-3′-amino-5-methylcytidin], the HBsAg is recorded as less than 1%.
Same read-out and setting: the same measure for `Nc1ncnc2c1ncn2[C@H]1C=C[C@@H](CO)O1` [2′,3′-Didehydro-2′,3′-didesoxyadenosin, 9-(2,3-Didesoxy-β-D-glycero-pent-2-enofuranosyl)adenin]: less than 1%.

Another data set deals with Hep G2 (2.2.15)-Zellen. The data set can be described thus: DNA synthesis of Hep G2 (2.2.15) cells (acid-insoluble radioactivity after 3H-thymidine or 3H-deoxyadenosine). The settings on record: nucleoside 0,01 µM; 4 days, then 24 h label; mean ± SD of five experiments. The format is cell-based, menschlichen. As to the method:
as §1
Turning to `Cc1cn([C@H]2C[C@H](N)[C@@H](CO)O2)c(=O)nc1N` [2′,3′-Didesoxy-3′-amino-5-methylcytidin], the “^3H-DNA” value amounted to 15445 ± 1830 dpm/Kultur.
Still for that read-out and setting: for `Nc1ncnc2c1ncn2[C@H]1C=C[C@@H](CO)O1` [2′,3′-Didehydro-2′,3′-didesoxyadenosin, 9-(2,3-Didesoxy-β-D-glycero-pent-2-enofuranosyl)adenin] the value was 17215 ± 1760 dpm/Kultur.

The same data set, now with this note: nucleoside 0,1 µM; 4 days, then 24 h label; mean ± SD of five experiments.
For the compound `Cc1cn([C@H]2C[C@H](N)[C@@H](CO)O2)c(=O)nc1N` [2′,3′-Didesoxy-3′-amino-5-methylcytidin], the “^3H-DNA” value came out at 14350 ± 1570 dpm/Kultur.
On the same count and under the same terms, for `Nc1ncnc2c1ncn2[C@H]1C=C[C@@H](CO)O1` [2′,3′-Didehydro-2′,3′-didesoxyadenosin, 9-(2,3-Didesoxy-β-D-glycero-pent-2-enofuranosyl)adenin] the value was 16230 ± 1745 dpm/Kultur.

Still in this data set, the particulars now being: nucleoside 0,03 µM; 4 days, then 24 h label; mean ± SD of five experiments.
Regarding `Cc1cn([C@H]2C[C@H](N)[C@@H](CO)O2)c(=O)nc1N` [2′,3′-Didesoxy-3′-amino-5-methylcytidin], the “^3H-DNA” value is reported as 14180 ± 1650 dpm/Kultur.
On the same count and under the same terms, for `Nc1ncnc2c1ncn2[C@H]1C=C[C@@H](CO)O1` [2′,3′-Didehydro-2′,3′-didesoxyadenosin, 9-(2,3-Didesoxy-β-D-glycero-pent-2-enofuranosyl)adenin] the value was 18975 ± 1957 dpm/Kultur.

The same data set, now with this note: nucleoside 0,3 µM; 4 days, then 24 h label; mean ± SD of five experiments.
For the compound `Cc1cn([C@H]2C[C@H](N)[C@@H](CO)O2)c(=O)nc1N` [2′,3′-Didesoxy-3′-amino-5-methylcytidin], the “^3H-DNA” value was determined as 12160 ± 1860 dpm/Kultur.
Take `Nc1ncnc2c1ncn2[C@H]1C=C[C@@H](CO)O1` [2′,3′-Didehydro-2′,3′-didesoxyadenosin, 9-(2,3-Didesoxy-β-D-glycero-pent-2-enofuranosyl)adenin]: the “^3H-DNA” value turned out to be 19400 ± 1926 dpm/Kultur.

The data set is the same for the next values; noted with them: nucleoside 0,003 µM; 4 days, then 24 h label; mean ± SD of five experiments.
On to `Cc1cn([C@H]2C[C@H](N)[C@@H](CO)O2)c(=O)nc1N` [2′,3′-Didesoxy-3′-amino-5-methylcytidin], for which the “^3H-DNA” value stood at 16020 ± 1790 dpm/Kultur.
On the same count and under the same terms, for `Nc1ncnc2c1ncn2[C@H]1C=C[C@@H](CO)O1` [2′,3′-Didehydro-2′,3′-didesoxyadenosin, 9-(2,3-Didesoxy-β-D-glycero-pent-2-enofuranosyl)adenin] the value was 19650 ± 1935 dpm/Kultur.

Staying with this data set, now noted: nucleoside 1,0 µM; 4 days, then 24 h label; mean ± SD of five experiments.
As to `Cc1cn([C@H]2C[C@H](N)[C@@H](CO)O2)c(=O)nc1N` [2′,3′-Didesoxy-3′-amino-5-methylcytidin], the “^3H-DNA” value came out at 8150 ± 1125 dpm/Kultur.
Turning to `Nc1ncnc2c1ncn2[C@H]1C=C[C@@H](CO)O1` [2′,3′-Didehydro-2′,3′-didesoxyadenosin, 9-(2,3-Didesoxy-β-D-glycero-pent-2-enofuranosyl)adenin], the “^3H-DNA” value stood at 9930 ± 1130 dpm/Kultur.

The data set is the same for the next values; noted with them: nucleoside 3,0 µM; 4 days, then 24 h label; mean ± SD of five experiments.
`Cc1cn([C@H]2C[C@H](N)[C@@H](CO)O2)c(=O)nc1N` [2′,3′-Didesoxy-3′-amino-5-methylcytidin]: the “^3H-DNA” value turned out to be 2100 ± 430 dpm/Kultur.
With `Nc1ncnc2c1ncn2[C@H]1C=C[C@@H](CO)O1` [2′,3′-Didehydro-2′,3′-didesoxyadenosin, 9-(2,3-Didesoxy-β-D-glycero-pent-2-enofuranosyl)adenin], the “^3H-DNA” value was 4265 ± 555 dpm/Kultur.
